{
  "source": "patent US9446052B2",
  "about": "“Composition for prevention of nausea or vomiting” (SAMYANG BIOPHARMACEUTICALS CORPORATION, priority 2010, dated 2016)",
  "origin": "cited, not measured here",
  "details": "pH 6-7.5",
  "data": [
    {"molecule": "Cc1nccn1CC1CCc2c(c3ccccc3n2C)C1=O", "note": "(stereo not shown) [ondansetron]", "values": [
      {"measurement": "Solubility in water", "result": "not soluble"}
    ]}
  ]
}
